Measurements taken from ChEMBL document CHEMBL1201862, “PubChem BioAssay data set” (2004).
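Interpolation was linear, between the two tested concentrations surrounding the appropriate level; five concentrations were tested over 48 hours in 96-well plates. GI50 = concentration required for 50% inhibition of growth.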 Calls of active or inactive are those of the source. Cut-off read from the data, not from the text of the source: active = GI50 up to about 1.1 µM and inactive = higher. *1 amine or outer side, *2 acyl side, *3 side chain or, on linkers, in order; H or OH if unused. Where a SMILES comes first, the peptide text is derived from it. Bridges are numbered along the chain shown (N, C = ends). Roman numbers before positions name the chains, in order. [ ]: non-standard residue; d: D form. Actinocin(9to1) = Cc1c2oc3c(C)ccc(C(=O)[*:1])c3nc-2c(C(=O)[*:2])c(N)c1=O; Hyp = O=C(O)[CH]1C[CH](O)CN1; NMeV = CN[CH](C(=O)O)C(C)C; Sar = CNCC(=O)O

Tests used:
Test in all cases: growth of human tumour cells (NCI), 48 h
[1] = test system: HT-29
[2] = test system: MDA-N
[3] = test system: M14
[4] = test system: OVCAR-5
[5] = test system: OVCAR-8
[6] = test system: MCF7
[7] = test system: HCT-116
[8] = test system: CCRF-CEM
[9] = test system: SK-MEL-2
[10] = test system: SNB-19
[11] = test system: UACC-62
[12] = test system: OVCAR-4
[13] = test system: HCC 2998
[14] = test system: COLO 205
[15] = test system: SK-OV-3
[16] = test system: MOLT-4
[17] = test system: SF-539
[18] = test system: PC-3
[19] = test system: EKVX
[20] = test system: CAKI-1

## COC(=O)/C=C(/C(=O)OC)c1c(C)c(C)c2c(C)cc(C)cc(C)c1-2
[1]
  GI50: 11.6 µM (inactive)
[2]
  GI50: 2.24 µM (inactive)
[3]
  GI50: 8.93 µM (inactive)
[4]
  GI50: 19.1 µM (inactive)
[5]
  GI50: 46.3 µM (inactive)
[6]
  GI50: 25.2 µM (inactive)
[7]
  GI50: 17.4 µM (inactive)
[8]
  GI50: > 100 µM (inactive)
[9]
  GI50: 26.2 µM (inactive)
[10]
  GI50: 58.7 µM (inactive)
[11]
  GI50: 8.39 µM (inactive)
[12]
  GI50: 76.2 µM (inactive)
[13]
  GI50: 21.3 µM (inactive)
[14]
  GI50: 29.4 µM (inactive)
[15]
  GI50: 18.2 µM (inactive)
[16]
  GI50: > 100 µM (inactive)
[17]
  GI50: 29.4 µM (inactive)
[18]
  GI50: 28.8 µM (inactive)
[19]
  GI50: 59.7 µM (inactive)
[20]
  GI50: 27.4 µM (inactive)

## COC(=O)C(CCCCN)NC(C)=O.Cc1ccc(C(=O)Nc2ccc(S(=O)(=O)O)c3cc(S(=O)(=O)O)cc(S(=O)(=O)O)c23)cc1NC(=O)c1cccc(NC(=O)Nc2cccc(C(=O)Nc3cc(C(=O)Nc4ccc(S(=O)(=O)O)c5cc(S(=O)(=O)O)cc(S(=O)(=O)O)c45)ccc3C)c2)c1
[1]
  GI50: > 50 µM (inactive)
[2]
  GI50: > 50 µM (inactive)
[3]
  GI50: > 50 µM (inactive)
[4]
  GI50: > 50 µM (inactive)
[5]
  GI50: > 50 µM (inactive)
[6]
  GI50: > 50 µM (inactive)
[7]
  GI50: > 50 µM (inactive)
[8]
  GI50: > 50 µM (inactive)
[9]
  GI50: > 50 µM (inactive)
[10]
  GI50: > 50 µM (inactive)
[11]
  GI50: > 50 µM (inactive)
[12]
  GI50: 0.5 µM (active)
[13]
  GI50: > 50 µM (inactive)
[14]
  GI50: > 50 µM (inactive)
[15]
  GI50: > 50 µM (inactive)
[16]
  GI50: > 50 µM (inactive)
[17]
  GI50: > 50 µM (inactive)
[18]
  GI50: > 50 µM (inactive)
[20]
  GI50: > 50 µM (inactive)

## OCCCCCCCCCCCOc1ccc(C2OCC3(CO2)COC(c2ccc(OCCCCCCCCCCCO)cc2)OC3)cc1 (stereo unspecified)
[1]
  GI50: > 50 µM (inactive)
[2]
  GI50: > 50 µM (inactive)
[3]
  GI50: > 50 µM (inactive)
[4]
  GI50: > 50 µM (inactive)
[5]
  GI50: > 50 µM (inactive)
[6]
  GI50: > 50 µM (inactive)
[7]
  GI50: > 50 µM (inactive)
[9]
  GI50: > 50 µM (inactive)
[10]
  GI50: > 50 µM (inactive)
[11]
  GI50: > 50 µM (inactive)
[12]
  GI50: > 50 µM (inactive)
[13]
  GI50: > 50 µM (inactive)
[14]
  GI50: > 50 µM (inactive)
[15]
  GI50: > 50 µM (inactive)
[16]
  GI50: > 50 µM (inactive)
[17]
  GI50: > 50 µM (inactive)
[18]
  GI50: > 50 µM (inactive)
[19]
  GI50: > 50 µM (inactive)
[20]
  GI50: > 50 µM (inactive)

## NCCCN1CCN(CCCNc2ccc3nnn4c5ccccc5c(=O)c2c34)CC1
[1]
  GI50: 13.3 µM (inactive)
[2]
  GI50: 16.2 µM (inactive)
[3]
  GI50: 17.6 µM (inactive)
[4]
  GI50: 29.6 µM (inactive)
[5]
  GI50: 20 µM (inactive)
[6]
  GI50: 16.2 µM (inactive)
[7]
  GI50: 6.73 µM (inactive)
[8]
  GI50: 9.91 µM (inactive)
[9]
  GI50: 18.7 µM (inactive)
[10]
  GI50: 12.8 µM (inactive)
[11]
  GI50: 15.4 µM (inactive)
[12]
  GI50: 11.8 µM (inactive)
[13]
  GI50: 11.9 µM (inactive)
[14]
  GI50: 4.07 µM (inactive)
[15]
  GI50: 57.4 µM (inactive)
[16]
  GI50: 9.51 µM (inactive)
[17]
  GI50: 13.9 µM (inactive)
[18]
  GI50: 12.5 µM (inactive)
[19]
  GI50: 19.9 µM (inactive)
[20]
  GI50: 14.6 µM (inactive)

## N#Cc1nc(CCC(c2nc(C#N)c(N)o2)N2C(=O)c3ccccc3C2=O)oc1N (stereo unspecified)
[1]
  GI50: > 100 µM (inactive)
[2]
  GI50: > 100 µM (inactive)
[3]
  GI50: > 100 µM (inactive)
[4]
  GI50: > 100 µM (inactive)
[6]
  GI50: > 100 µM (inactive)
[7]
  GI50: > 100 µM (inactive)
[8]
  GI50: > 10 µM (inactive)
[9]
  GI50: > 100 µM (inactive)
[10]
  GI50: > 100 µM (inactive)
[11]
  GI50: > 100 µM (inactive)
[12]
  GI50: 67.6 µM (inactive)
[13]
  GI50: > 100 µM (inactive)
[14]
  GI50: > 100 µM (inactive)
[15]
  GI50: > 100 µM (inactive)
[16]
  GI50: 27.8 µM (inactive)
[17]
  GI50: > 100 µM (inactive)
[18]
  GI50: > 100 µM (inactive)
[19]
  GI50: > 100 µM (inactive)
[20]
  GI50: > 100 µM (inactive)

## Cc1c2oc3c(C)ccc(C(=O)NC4C(=O)NC(C(C)C)C(=O)N5CC(O)CC5C(=O)N(C)CC(=O)N(C)C(C(C)C)C(=O)OC4C)c3nc-2c(C(=O)NC2C(=O)NC(C(C)C)C(=O)N3CC(O)CC3C(=O)N(C)CC(=O)N(C)C(C(C)C)C(=O)OC2C)c(N)c1=O (stereo unspecified) (I: TV[Hyp][Sar][NMeV] / II: TV[Hyp][Sar][NMeV]; ester I:1-I:C, II:1-II:C; linker I:N-II:N via Actinocin(9to1); configuration not given here)
[1]
  GI50: > 1 µM (active)
[2]
  GI50: > 1 µM (active)
[3]
  GI50: > 1 µM (active)
[4]
  GI50: > 1 µM (active)
[5]
  GI50: > 1 µM (active)
[6]
  GI50: > 1 µM (active)
[7]
  GI50: > 1 µM (active)
[8]
  GI50: > 1 µM (active)
[9]
  GI50: > 1 µM (active)
[10]
  GI50: > 1 µM (active)
[12]
  GI50: > 1 µM (active)
[13]
  GI50: > 1 µM (active)
[14]
  GI50: > 1 µM (active)
[15]
  GI50: > 1 µM (active)
[16]
  GI50: > 1 µM (active)
[17]
  GI50: > 1 µM (active)
[18]
  GI50: > 1 µM (active)
[19]
  GI50: > 1 µM (active)
[20]
  GI50: > 1 µM (active)

## CCC/N=C/c1cc(Cc2ccc(O)c(/C=N/CCC)c2)ccc1O
[1]
  GI50: 12.5 µM (inactive)
[2]
  GI50: 2.78 µM (inactive)
[3]
  GI50: 2.69 µM (inactive)
[4]
  GI50: 18.4 µM (inactive)
[5]
  GI50: 3.1 µM (inactive)
[6]
  GI50: 2.36 µM (inactive)
[7]
  GI50: 2.37 µM (inactive)
[9]
  GI50: 3 µM (inactive)
[10]
  GI50: 2.7 µM (inactive)
[11]
  GI50: 5.53 µM (inactive)
[12]
  GI50: 5.47 µM (inactive)
[13]
  GI50: 14.1 µM (inactive)
[14]
  GI50: 16.1 µM (inactive)
[15]
  GI50: 18.5 µM (inactive)
[16]
  GI50: 1.54 µM (inactive)
[17]
  GI50: 2.77 µM (inactive)
[18]
  GI50: 1.82 µM (inactive)
[19]
  GI50: 8.87 µM (inactive)
[20]
  GI50: 21.1 µM (inactive)

## C=C1[C@H](OC(C)=O)[C@H]2[C@@H](OC(C)=O)[C@@H](C)C[C@]2(C)C(=O)[C@H](C)/C=C/C(C)(C)C(=O)[C@H](OCC(C)C)[C@H]1OC(C)=O
[2]
  GI50: 14.4 µM (inactive)
[3]
  GI50: > 25 µM (inactive)
[4]
  GI50: > 25 µM (inactive)
[5]
  GI50: > 25 µM (inactive)
[6]
  GI50: > 25 µM (inactive)
[7]
  GI50: > 25 µM (inactive)
[8]
  GI50: 20.2 µM (inactive)
[9]
  GI50: > 25 µM (inactive)
[10]
  GI50: > 25 µM (inactive)
[11]
  GI50: > 25 µM (inactive)
[12]
  GI50: > 25 µM (inactive)
[13]
  GI50: > 25 µM (inactive)
[14]
  GI50: 12.9 µM (inactive)
[15]
  GI50: > 25 µM (inactive)
[16]
  GI50: 20.7 µM (inactive)
[17]
  GI50: 19.6 µM (inactive)
[18]
  GI50: > 25 µM (inactive)
[19]
  GI50: > 25 µM (inactive)
[20]
  GI50: 24.7 µM (inactive)

## CC1(C)C2CCC1C(=O)C(C=O)C2 (stereo unspecified)
[1]
  GI50: > 100 µM (inactive)
[2]
  GI50: > 100 µM (inactive)
[3]
  GI50: > 100 µM (inactive)
[4]
  GI50: > 100 µM (inactive)
[5]
  GI50: > 100 µM (inactive)
[6]
  GI50: > 100 µM (inactive)
[7]
  GI50: > 100 µM (inactive)
[8]
  GI50: > 100 µM (inactive)
[9]
  GI50: > 100 µM (inactive)
[10]
  GI50: > 100 µM (inactive)
[11]
  GI50: > 100 µM (inactive)
[13]
  GI50: > 100 µM (inactive)
[14]
  GI50: > 100 µM (inactive)
[15]
  GI50: > 100 µM (inactive)
[16]
  GI50: > 100 µM (inactive)
[17]
  GI50: 74.5 µM (inactive)
[18]
  GI50: > 100 µM (inactive)
[20]
  GI50: > 100 µM (inactive)

## OCCOCn1nncc1Cn1ncc2c(SCc3ccccc3)ncnc21
[1]
  GI50: 37.7 µM (inactive)
[2]
  GI50: 54.7 µM (inactive)
[3]
  GI50: 59.3 µM (inactive)
[4]
  GI50: > 100 µM (inactive)
[5]
  GI50: 64 µM (inactive)
[6]
  GI50: 49.3 µM (inactive)
[7]
  GI50: 45.9 µM (inactive)
[9]
  GI50: > 100 µM (inactive)
[10]
  GI50: > 100 µM (inactive)
[11]
  GI50: > 100 µM (inactive)
[12]
  GI50: 88.5 µM (inactive)
[13]
  GI50: > 100 µM (inactive)
[14]
  GI50: > 100 µM (inactive)
[15]
  GI50: > 100 µM (inactive)
[16]
  GI50: 6.19 µM (inactive)
[17]
  GI50: 65 µM (inactive)
[18]
  GI50: 94.8 µM (inactive)
[19]
  GI50: > 100 µM (inactive)
[20]
  GI50: > 100 µM (inactive)
